Here are results for two compounds from article PMC10810651, “Discovery of novel and potent CDK8 inhibitors for the treatment of acute myeloid leukaemia” (Journal of Enzyme Inhibition and Medicinal Chemistry, 2024).

One test has as its system MDA-MB-231. As to the kind of experiment: Antiproliferative CCK-8 assay, MDA-MB-231. Format: cell-based. The settings on record: Homo sapiens; MDA-MB-231, CCK-8 assay, means ± SD; read-out: GC50 (the source's name). The source says: (§1) Compounds12, 13 and 30 were selected for further cell activity assessments based on the enzymatic activity assessment results. molm-13 and MV4-11(acute myeloid lineage leukaemia cells), MGC-803 (gastric cancer cell), MDA-MB-231(breast cancer cell), A375 (melanoma cell), A549 (lung cancer cell), HCT-116, SW-480 and HT-29 (colorectal cancer cells) were selected to evaluate antitumor activity in vitro, GES-1 (gastric mucosal epithelial cell) was selected to evaluate toxicity in vitro.
(§2) CO2 atmosphere incubator for 24 h. Then, medium with compound at the concentrations of 100, 20, 4, 0.8, 0.016 μM was added into each well for another 48 h and incubated with CCK-8 (10 μL) for 2 h at 37 °C. The absorbance value at 450 nm was measured by the microplate reader (PerkinElmer Envision). […]
In general terms: Formazan colour is commonly taken as a measure of viable cells.

The test system of the next test is HT-29. The experiment in a line: Antiproliferative CCK-8 assay, HT-29. Format: cell-based. The following applies: Homo sapiens; HT-29, CCK-8 assay, means ± SD; read-out: GC50 (the source's name).
Description: as §1, §2

A further test relates to A549. The experiment in a line: Antiproliferative CCK-8 assay, A549. Format: cell-based. The following applies: Homo sapiens; A549, CCK-8 assay, means ± SD; read-out: GC50 (the source's name).
Description: as §1, §2

For another test, the system named is GES-1. The experiment in a line: In vitro toxicity CCK-8 assay, GES-1. The settings on record: Homo sapiens, GES1, GES-1 gastric mucosal epithelial cell, read-out: GC50 (the source's name). The format is cell-based.
Description: as §1, §2

For a further test, the system named is HCT-116. The experiment in a line: Antiproliferative CCK-8 assay, HCT-116. Format: cell-based. The following applies: Homo sapiens; HCT-116, CCK-8 assay, means ± SD; read-out: GC50 (the source's name).
Description: as §1, §2

Another test concerns SW480. The experiment in a line: Antiproliferative CCK-8 assay, SW480. The format is cell-based. The following applies: Homo sapiens; SW480, CCK-8 assay, means ± SD; read-out: GC50 (the source's name).
Description: as §1, §2

A further test concerns molm-13. The experiment in a line: Antiproliferative CCK-8 assay, molm-13. The format is cell-based. The settings on record: Homo sapiens; molm-13, CCK-8 assay, means ± SD; read-out: GC50 (the source's name).
Description: as §1, §2

A further test deals with MGC-803. The experiment in a line: Antiproliferative CCK-8 assay, MGC-803. Format: cell-based. The settings on record: Homo sapiens; MGC-803, CCK-8 assay, means ± SD; read-out: GC50 (the source's name).
Description: as §1, §2

For the next test, the target named is CDK8 (Homo sapiens, UniProt P49336). As to the kind of experiment: CDK8 enzyme activity assay (ADP-Glo Kinase Assay). Format: biochemical. The following applies: means ± SD; for inhibition at 0.2 µM: CDK8, 200 nM, two experiments, read-out: Inhibition rate @ 200 nM (%); for IC50: three experiments. The protocol: Some of them with high inhibition rates were further measured for their IC50 values. Compound SEL-120 34 A was selected as a positive control. [table] [table] page 14: CO2 atmosphere incubator for 24 h. Then, medium with compound at the concentrations of 100, 20, 4, 0.8, 0.016 μM was added into each well for another 48 h and incubated with CCK-8 (10 μL) for 2 h at 37 °C. The absorbance value at 450 nm was measured by the microplate reader (PerkinElmer Envision). 1.4 Kinase Assay The kinase inhibition was detected by ADP-Glo™ Kinase Assay (Promega) using a black 384-well plate. The active CDK8 kinase was diluted in mixture (5 ng enzyme, 0.5 μg substrate, 50 μM DTT, 1 μL reaction buffer and added ddH2O to 3 μL each well) and the final ATP concentrations of was 50 μM. After incubation at room temperature, ADP-Glo™ solution and kinase detection reagent was added. The data was collected by the microplate reader. 1.5 Cellular thermal shift assay HCT-116 cells were cultured in cell culture dishes and treated with 5 μM compound 12 for 4 h. HCT-116 cells were collected, washed by PBS and cell suspensions were divided into 12 PCR tubes equally. Then,11 tubes were heated at 37, […] After that, cells were broken by ultr asonic treatment and centrifuged at 12000 rpm for 20 min. The supernatant was analyzed by western blot. 1.6 Biotin-pulldown assay After co-treated with 2 μM biotinylated compound and compound 12 for 12 h, HCT-116 cells were lysed with NP-40 containing PMSF and centrifuged at 14000 r for 30 min at 4 °C. Then, 40 μL supernatant was used as the input by adding 10 μL 5×SDS loading buffer, and the remains were mixed with Streptavidin Agarose (Novex, Carlsbad, CA, USA). After 6 h incuba tion at 4 °C, the beads were washed three times using lysis buffer and resuspended in 2× SDS loading buffer. HEK -293T cells overexpressed flag -tagged CDK8 were treated using above method. The samples were analyzed by western blot.
CDK8, sequence (P49336 whole entry): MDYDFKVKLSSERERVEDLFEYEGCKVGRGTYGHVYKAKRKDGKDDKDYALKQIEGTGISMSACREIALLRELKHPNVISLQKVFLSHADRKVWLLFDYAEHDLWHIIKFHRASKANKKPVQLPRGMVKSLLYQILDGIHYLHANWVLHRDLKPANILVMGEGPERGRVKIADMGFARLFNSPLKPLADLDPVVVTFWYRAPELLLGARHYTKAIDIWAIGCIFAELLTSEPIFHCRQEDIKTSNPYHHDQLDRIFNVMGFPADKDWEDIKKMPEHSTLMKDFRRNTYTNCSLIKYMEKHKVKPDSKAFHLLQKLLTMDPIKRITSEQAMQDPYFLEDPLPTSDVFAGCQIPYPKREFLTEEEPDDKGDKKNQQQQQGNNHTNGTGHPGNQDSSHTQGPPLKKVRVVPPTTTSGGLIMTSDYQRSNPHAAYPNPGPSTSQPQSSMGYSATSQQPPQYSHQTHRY
CDK8, sequence (P24863 whole entry partner): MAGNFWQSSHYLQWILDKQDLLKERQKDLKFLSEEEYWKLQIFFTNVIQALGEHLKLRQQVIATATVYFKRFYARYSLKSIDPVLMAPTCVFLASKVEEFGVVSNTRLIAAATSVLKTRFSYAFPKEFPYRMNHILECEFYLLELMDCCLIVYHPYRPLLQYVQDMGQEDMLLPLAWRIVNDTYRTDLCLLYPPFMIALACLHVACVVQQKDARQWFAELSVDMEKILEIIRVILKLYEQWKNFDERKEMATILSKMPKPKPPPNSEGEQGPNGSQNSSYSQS
In general terms: In ADP-Glo the light output rises with the ADP produced.

The test system of a further test is A375. As to the kind of experiment: Antiproliferative CCK-8 assay, A375. The format is cell-based. The following applies: Homo sapiens, A-375; A375, CCK-8 assay, means ± SD; read-out: GC50 (the source's name).
Description: as §1, §2

In the next test the test system is MV4-11. As to the kind of experiment: Antiproliferative CCK-8 assay, MV4-11. The format is cell-based. The following applies: Homo sapiens; MV4-11, CCK-8 assay, means ± SD; read-out: GC50 (the source's name).
Description: as §1, §2

Consider `NC(=O)c1cccc(-c2cnc3[nH]cc(-c4ccsc4)c3c2)c1` [Compound 13], for which the IC50 in the test with MDA-MB-231 was determined as 31.5 ± 1.27 µM; with HT-29, 9.31 ± 1.67 µM; with A549 it was 21.8 ± 1.66 µM; in the test with GES-1 it was 24.2 ± 3.62 µM; with HCT-116 it was 2.48 ± 0.99 µM; in the test with SW480, 5.45 ± 2.82 µM. Further, the IC50 with molm-13 worked out at 0.16 ± 0.02 µM; in the test on MGC-803 it was 9.19 ± 2.42 µM; at CDK8, 0.0657 ± 0.0031 µM; in the test on A375, 0.95 ± 0.52 µM; with MV4-11, 0.36 ± 0.12 µM. The inhibition – broadly, the percentage by which the read-out fell short of the control – at 0.2 µM at CDK8 worked out at 70.4 ± 3.6%.
On to `Cc1c(Br)c(Br)c2c3c1nc(N1CCNCC1)n3CCC2` [SEL-120-34A, reference compound], for which the IC50 in the test on MDA-MB-231 stood at 9.6 ± 0.81 µM; with HT-29 it was 33.8 ± 1.4 µM; with A549 it was 12.1 ± 0.37 µM; with GES-1, 55.3 ± 3.2 µM; in the test with HCT-116, 11.3 ± 1.9 µM; in the test on SW480, 17.7 ± 2.1 µM. The IC50 in the test on molm-13 was determined as 0.02 ± 0.01 µM; with MGC-803 it was 16.3 ± 1.86 µM; against CDK8, 0.0372 ± 0.0025 µM; with A375 it was 5.9 ± 1.43 µM; in the test with MV4-11, 0.007 ± 0.001 µM. Moreover, on CDK8, the inhibition at 0.2 µM was determined as 82.5 ± 5.8%.
